In patent US9227921B2, “Salts and polymorphs of a tetracycline compound” (Paratek Pharmaceuticals, Inc., priority 2008, dated 2016):

Tests used:
[1] = Solid phase stability of amorphous Compound 1; type: physicochemical; details: temperatures higher than 0° C. and when exposed to air
From the text: Tetracycline-type antibiotic compounds have long been known to have limited stability in the solid phase freebase form. One such non-crystalline tetracycline analog compound, (4S,4AS,5AR,12AS)-4-7-Bis(dimethylamino)-9-{[(2,2-dimethylpropyl)amino]methyl}-3,10,12,12A-tetrahydroxy-1,1′-dioxo-1,4,4A,5,5A,6,11,12A-octahydrotetracene-2-carboxamide (Compound 1; MW=556.66, MF=C29H40N4O7), has limited stability in the solid phase upon exposure to air, light and/or moisture.
Specifically, Compound 1 is a yellow amorphous solid that is unstable at temperatures higher than 0° C. and when exposed to air. Compound 1 must be stored at temperatures below 0° C. with limited exposure in the solid phase to air, light and moisture. Outside of these limited exposure conditions, Compound 1 degrades to produce degradation products including air degradation products 2, 3 and 4, as well as the 4-epi-isomer 5.

[2] = Stability studies on free base Compound 1 and amorphous diHCl salt; type: physicochemical
Protocol: Stability studies were performed on the free base Compound 1 and an amorphous diHCl salt of Compound 1. This salt was formed by dissolving the compound in aqueous solution, adjusting the pH of the solution to approximately 4.2, followed by lyophilization. The free base degraded in less than one month at 40° C., and approximately three months at 4° C. In contrast, the diHCl salt of Compound 1 was stable for 6 months at 40° C., and for two years at room temperature (25° C.).

solid phase stability [1]: unstable
time in which the substance degraded ([2]; 4° C.): approximately three
time in which the substance degraded ([2]; 40° C.): less than one
SMILES: CN(C)c1cc(CNCC(C)(C)C)c(O)c2c1C[C@H]1C[C@H]3[C@H](N(C)C)C(O)=C(C(N)=O)C(=O)[C@@]3(O)C(O)=C1C2=O [Compound 1, (4S,4AS,5AR,12AS)-4-7-Bis(dimethylamino)-9{[(2,2-dimethylpropyl)amino]methyl}-3,10,12,12A-tetrahydroxy-1,1′-dioxo-1,4,4A,5,5A,6,11,12A-octahydrotetracene-2-carboxamide]
